{"source": "patent US20260337187A1", "about": "“COMPOUNDS FOR TREATMENT OF INFLAMMATORY PROCESSES” (THORNE LIMITED, priority 2022, published 2026)", "type_in_all_cases": "cell-based", "key": {"SWAP-70": {"test_system": "SWAP-70", "assay": "FACS-FRET of SWAP-70 dimerization in living cells", "experimental": "B2 was added to the cells 15 minutes prior to stimulation.\n(§1) FACS-FRET of SWAP-70 in living cells: The method was in line with that previously described by Betaneli and Jessberger (2020). Briefly, two versions of SWAP-70, differently tagged with the fluorescent dyes Cerulean and Venus, were stably expressed in 293T cells. Upon activation of the cells, e.g., by sodium vanadate, SWAP-70 dimerizes. Thereby the two fluorophores associate and generate a fluorescence resonance energy transfer (FRET) signal, which is measured by FACS. FACS-FRET allows to analyze large numbers of cells simultaneously.\nas §1, with “Two” for “FACS-FRET of SWAP-70 in living cells: The method was in line with that previously described by Betaneli and Jessberger (2020). Briefly, two”, “simultaneously. […] B2 was added to the cells 15 minutes prior to stimulation.” for “simultaneously.”"}, "primary human B cells": {"test_system": "primary human B cells", "assay": "B lymphocyte IgE production (frequency of IgE+ B lymphocytes by FACS)", "experimental": "B2 was applied at 3 different concentrations, from left to right: 50, 20 and 10 μM. Average of >10 experiments is shown.\nB lymphocyte IgE production: B lymphocyte IgE production was measured in line with that previously described by Audzevich et al. (2013). Briefly, primary human B cells isolated by the MACSxpress Buffy Coat Pan B Cell Isolation Kit (Miltenyi Biotec) from buffy coat were stimulated for 6 days by recombinant hCD40L (100 μg/ml) and IL-4 (50 ng/ml) at a cell density of 5×10^4 cells/ml. The frequency of IgE+B lymphocytes was determined by FACS at day 6 using anti CD19 and anti IgE antibodies.\nTo investigate inhibition of B lymphocyte IgE production by B2, the frequency of IgE+B lymphocytes was determined by FACS at day 6 of primary human B cell cultures isolated from fresh buffy coat and stimulated by CD40L and IL4."}, "[1]": {"test_system": "Primary human pulmonary microvascular endothelial cells (HPMEC)", "assay": "Neutrophil adhesion to endothelial cells", "conditions": "10, 20 and 50 μM B2, TNF-α stimulated HPMEC (FIG. 11)", "from_the_text": "The number of adhered green-fluorescent labeled neutrophils per field of view normalized to the area covered by endothelial cells per field of view is shown. Three concentrations of B2 are shown next to the solvent (DMSO) control. An exemplary experiment out of three is shown.\nNeutrophil adhesion to endothelial cells: Primary human pulmonary microvascular endothelial cells (HPMEC) were purchased from Promocell and maintained in endothelial cell media from Promocell as per the company's protocol. The endothelial cells were plated in flat bottom 96 well plastic plates at a concentration of 50,000 cells/well. After 24 h the endothelial cells were stimulated overnight by TNF-α (100 ng/ml) and the inhibitor. Neutrophils were isolated from whole blood using MACSxpress Neutrophil isolation kit. […] Samples were analyzed in triplicates and 3 fields of view were imaged per well. Cells per field of view were quantified using FiJi software.\nTo investigate the adhesion of neutrophils to endothelial cells, human primary neutrophils, were fluorescently labeled with 1 μM CellTracker dye and resuspended in HBS solution prior to addition of B2 or DMSO. Green fluorescent adherent cells were counted, the area covered by endothelial cell was measured, and the number of neutrophils adherent to endothelial cells normalized for the area covered by endothelial cells."}, "[2]": {"test_system": "Primary human pulmonary microvascular endothelial cells (HPMEC)", "assay": "Pulmonary endothelial cell cytokine release (TNFα triggered, cytokine array)", "conditions": "for inhibition at 50 µM: Homo sapiens, Endothelial cell, 50 μM B2, activated by TNF", "experimental": "Endothelial cell cytokine release: Primary human pulmonary microvascular endothelial cells (HPMEC) were purchased from Promocell and maintained in endothelial cell media from Promocell as per the company's protocol. To measure the release of inflammatory mediators HPMEC were cultured to confluence in a 12 well plate in 1 ml of endothelial cell media. Cells were then stimulated with TNFα at 100 ng/ml overnight in the presence or absence of B2 or control DMSO. The supernatant was then collected and inflammatory mediator levels were measured in it using the Cytokine XXL array from R&D systems according to manufacturer's instructions as described above.\nHuman primary pulmonary endothelial cells were triggered to produce cytokines by the pro-inflammatory cytokine TNFα. The levels of 105 cytokines in the cell culture supernatant were measured by the R&D Systems Human XL cytokine array and a fluorescence-based photometric read-out. The table lists cytokines whose production was reduced by >50% (left) or 20 to 50% upon treatment with 50 μM B2 (right)."}}, "note": "Like-named read-outs stand apart in the source and are kept apart here.", "data": [{"smiles": "Cc1onc(-c2ccccc2Cl)c1C(=O)Nc1nc2ccc([N+](=O)[O-])cc2s1", "note": "[B2, 3-(2-chlorophenyl)-5-methyl-N-(6-nitrobenzo[d]thiazol-2-yl)isoxazole-4-carboxamide]", "values": [{"measurement": "FACS-FRET signal, SWAP-70 dimerization at earlier time intervals", "setting": "SWAP-70; 50 μM B2, 5-10 and 10-15 minutes after stimulation, B2 added 15 minutes prior", "result": "inhibition by 50 μM B2 at earlier time intervals"}, {"measurement": "FACS-FRET signal (FRET efficiency), SWAP-70 dimerization", "setting": "SWAP-70; 50, 25 and 10 μM B2, 20 minutes after stimulation, B2 added 15 minutes prior", "result": "inhibition of the FACS-FRET signal"}, {"measurement": "SWAP-70 dimerization in living cells", "setting": "SWAP-70; 293T cells, sodium vanadate activation", "result": "inhibits SWAP-70 dimerization in living cells"}, {"measurement": "toxicity in B lymphocyte culture", "setting": "primary human B cells; 50 μM B2, day 6", "result": "some toxicity was observed"}, {"measurement": "IgE production by primary human peripheral blood B lymphocytes", "setting": "primary human B cells; CD40L and IL4, day 6, FIG. 5 (50, 20, 10 μM)", "result": "inhibits IgE production"}, {"measurement": "toxicity in B lymphocyte culture", "setting": "primary human B cells; lower concentrations than 50 μM (20 and 10 μM), day 6", "result": "not observed"}, {"measurement": "neutrophil adhesion to endothelial cells", "setting": "[1]", "result": "inhibition of neutrophil adhesion to endothelial cells"}, {"measurement": "inhibition at 50 µM", "setting": "[2]; *Poor dose response, only minor increase with TNF, read-out: FGF19 production, reduction", "result": "20 to 50", "unit": "%"}, {"measurement": "inhibition at 50 µM", "setting": "[2]; read-out: CCL2/MCP-1 production, reduction", "result": "20 to 50", "unit": "%"}, {"measurement": "inhibition at 50 µM", "setting": "[2]; read-out: CCL5/RANTES production, reduction", "result": "> 50", "unit": "%"}, {"measurement": "inhibition at 50 µM", "setting": "[2]; read-out: CCL20/MIP-3 alpha production, reduction", "result": "20 to 50", "unit": "%"}, {"measurement": "inhibition at 50 µM", "setting": "[2]; read-out: CXCL1/GRO-alpha production, reduction", "result": "> 50", "unit": "%"}, {"measurement": "inhibition at 50 µM", "setting": "[2]; read-out: CXCL5/ENA-78 production, reduction", "result": "> 50", "unit": "%"}, {"measurement": "inhibition at 50 µM", "setting": "[2]; read-out: CXCL10/IP10 production, reduction", "result": "20 to 50", "unit": "%"}, {"measurement": "inhibition at 50 µM", "setting": "[2]; read-out: GMCSF production, reduction", "result": "> 50", "unit": "%"}, {"measurement": "inhibition at 50 µM", "setting": "[2]; read-out: HGF production, reduction", "result": "> 50", "unit": "%"}, {"measurement": "inhibition at 50 µM", "setting": "[2]; read-out: ICAM-1 production, reduction", "result": "> 50", "unit": "%"}, {"measurement": "inhibition at 50 µM", "setting": "[2]; read-out: Pentraxin-3 production, reduction", "result": "20 to 50", "unit": "%"}, {"measurement": "inhibition at 50 µM", "setting": "[2]; read-out: TFF3 production, reduction", "result": "> 50", "unit": "%"}, {"measurement": "inhibition at 50 µM", "setting": "[2]; read-out: VCAM-1 production, reduction", "result": "> 50", "unit": "%"}, {"measurement": "human pulmonary endothelial cell cytokine release profile", "setting": "[2]; TNFα, Table 1", "result": "reducing specific pro-inflammatory cytokines"}, {"measurement": "secretion of several chemokines by endothelial cells", "setting": "[2]; TNFα, Table 1", "result": "substantially reduced"}, {"measurement": "secretion of several soluble adhesion molecules by endothelial cells", "setting": "[2]; TNFα, Table 1", "result": "reduced"}, {"measurement": "FGF19 production, dose response", "setting": "[2]; activated by TNF, footnote * to FGF19", "result": "*Poor dose response, only minor increase with TNF."}]}]}
